Literature values as cited in US20240122889A1, “DRY POWDER COMPOSITIONS OF TREPROSTINIL PRODRUGS AND METHODS OF USE THEREOF” (Insmed Incorporated, priority 0001, published 2024).

Tested on: conscious male guinea pigs

Q: With `CCCCC[C@H](O)CC[C@@H]1[C@H]2Cc3cccc(OCC(=O)O)c3C[C@H]2C[C@H]1O` [TRE, Treprostinil] as the compound, how does the “Threshold dose that causes cough” value (inhaled TRE given by nebulization) read?
A: 1.2 μg TRE/kg body weight

Q: And the Timing of cough (nebulized, time of exposure)?
A: ≤ 10 min
